According to US20080262066A1, “Azole Derivatives as Cannabinoid CB1 Receptor Antagonists” (Green Cross Corporation, priority 2007, published 2008):

biological target: T1, rat CB-1 receptor (Rattus norvegicus, UniProt P20272); assay: rat CB-1 receptor binding protocol with [3H]CP-55940 on SD rat brain tissue; conditions: [3H]CP-55940 displacement, SD rat brain homogenate, 30° C., 60 min; read-out: IC50 (binding affinity for CB1 receptor)
T1 construct: The tissue obtained from the brain of SD rats was homogenized; from tissue; host or cells: SD rat brain (membrane pellet of homogenate)
T1 sequence (P20272 whole entry): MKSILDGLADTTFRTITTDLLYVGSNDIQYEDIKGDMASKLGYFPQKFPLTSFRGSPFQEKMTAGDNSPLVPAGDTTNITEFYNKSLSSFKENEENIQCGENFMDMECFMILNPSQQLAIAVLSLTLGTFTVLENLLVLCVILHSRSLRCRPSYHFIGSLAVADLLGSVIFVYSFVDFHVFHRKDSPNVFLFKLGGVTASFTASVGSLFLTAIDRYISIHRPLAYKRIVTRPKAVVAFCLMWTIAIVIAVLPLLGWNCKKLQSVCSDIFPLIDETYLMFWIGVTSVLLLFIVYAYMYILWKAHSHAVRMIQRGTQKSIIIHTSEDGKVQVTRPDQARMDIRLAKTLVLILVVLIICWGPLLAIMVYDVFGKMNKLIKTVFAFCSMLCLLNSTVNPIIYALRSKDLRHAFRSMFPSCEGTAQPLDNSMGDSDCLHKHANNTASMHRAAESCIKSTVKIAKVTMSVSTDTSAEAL
Experimental: The tissue obtained from the brain of SD rats was homogenized with a Dounce homogenate system in TME (50 mM Tris, 3 mM MgCl2 and 1 mM EDTA, pH 7.4) at 4° C., and the homogenate was centrifuged at 48,000 g for 30 min. at 4° C. The pellet was resuspended in 5 ml of TME and the suspension was divided into aliquots and stored at −70° C. until its use in the following assay.
The tissue concentrations were determined by Bradford protein analysis, and 148 μl of brain tissue of the required concentration was added to the plate. The plate was covered and placed in a 30° C. incubator for 60 min, and then transformed on GF/B filtermat pretreated in polyethylenimine (PEI) using a cell harvester. Each filter was washed five times and dried at 60° C. for 1 hr. Then, the degree of radioactivity retained by the filter was measured using Wallac Microbeta™ (PerkinElmer Life Sciences, Inc., Massachusetts, U.S.A.) and the activity of the compound for inhibiting CB1 receptor was determined therefrom.

CCCC(=O)NCNC(=O)c1nn(-c2ccc(Cl)cc2Cl)c(-c2ccc(Cl)cc2)c1C [Example 36, N-(Butyramidomethyl)-5-(4-chlorophenyl)-1-(2,4-dichlorophenyl)-4-methyl-1H-pyrazole-3-carboxamide] and Cc1c(C(=O)NCNC(=O)C(C)C)nn(-c2ccc(Cl)cc2Cl)c1-c1ccc(Cl)cc1 [Example 37, 5-(4-Chlorophenyl)-1-(2,4-dichlorophenyl)-N-(isobutyramidomethyl)-4-methyl-1H-pyrazole-3-carboxamide] are within 1.5-fold of each other in IC50: 905 nM for the first, 951 nM for the second.

Going from Cc1c(C(=O)NCNC(=O)C2CCCCCC2)nn(-c2ccc(Cl)cc2Cl)c1-c1ccc(Cl)cc1 [Example 38, 5-(4-Chlorophenyl)-N-(cycloheptanecarboxamidomethyl)-1-(2,4-dichlorophenyl)-4-methyl-1H-pyrazole-3-carboxamide] to Cc1c(C(=O)NCNC(=O)CC2CCCCC2)nn(-c2ccc(Cl)cc2Cl)c1-c1ccc(Cl)cc1 [Example 39, 5-(4-Chlorophenyl)-N-((2-cyclohexylacetamido)methyl)-1-(2,4-dichlorophenyl)-4-methyl-1H-pyrazole-3-carboxamide], the IC50 falls from 75.6 nM to 46.5 nM (1.6-fold). The second is the more potent here.

Cc1c(C(=O)NCNC(=O)C2CCCC(C)C2)nn(-c2ccc(Cl)cc2Cl)c1-c1ccc(Cl)cc1 (stereo not drawn) [Example 40, 5-(4-Chlorophenyl)-1-(2,4-dichlorophenyl)-4-methyl-N-((3-methylcyclohexanecarboxamido)methyl)-1H-pyrazole-3-carboxamide] and Cc1c(C(=O)NCNC(=O)CC2CCCC2)nn(-c2ccc(Cl)cc2Cl)c1-c1ccc(Cl)cc1 [Example 41, 5-(4-Chlorophenyl)-N-((2-cyclopentylacetamido)methyl)-1-(2,4-dichlorophenyl)-4-methyl-1H-pyrazole-3-carboxamide] are within 1.5-fold of each other in IC50: 102 nM for the first, 138 nM for the second.
